# US20110275644A1, “BIOLOGICAL MARKERS PREDICTIVE OF ANTI-CANCER RESPONSE TO INSULIN-LIKE GROWTH FACTOR-1 RECEPTOR KINASE INHIBITORS” (priority 2010, published 2011)
# Columns and labels:
# phospho-IGF-1R [1] = molecular target: T1, phospho-IGF-1R (Homo sapiens, UniProt P08069); experiment: receptor phosphorylation in HT-29 CRC cells with insulin; format: cell-based; parameters: endogenous in cells; host or cells: human tumour cell lines (panel of nine; HT-29; MDAH-2774; H322, SK-N-AS, H295R, A673); settings: HT-29 cells treated with 5 or 50 μIU/mL insulin; OSI-906 3 μM or MAB391 3 μg/ml, 16 hours
# Procedure: (§1) Preparation of Protein Lysates and Western Blotting: Lysates for Western blotting were prepared as previously described (44). Antibodies included: IGF-1R (Santa Cruz), IR (Santa Cruz), phospho-p42/p44 (Cell Signaling Technologies), phospho-Akt (S473) (Cell Signaling Technologies), phospho-Akt (T308) (Cell Signaling Technologies), phosho-S6 (235/236) (Cell Signaling Technologies), phosphor-PRAS40 (Cell Signaling Technologies), and phosphor-IRS-1-Y612 (Biosource).
# (§2) Analysis of RTK phosphorylation via a proteome array: Proteome Profiler arrays containing capture antibodies for 42 RTKs were from R&D systems (RTK Proteome Profile; R&D Systems, Minneapolis, Minn.) and processed according to manufacturer's protocol. pIGF-1R and pIR were determined by RTK capture array. Proteome profiler arrays housed 42 different RTKs. RTKs included on the array include: HER1, HER2, HER3, HER4, FGFR1, FGFR2a, FGFR3, FGFR4, IR, IGF-1R, Axl, Dtk, Mer, HGFR, MSPR, PDGFRα, PDGFRβ, SCFR, Flt-3, M-CSFR, c-Ret, ROR1, ROR2, Tie-1, Tie-2, TrkA, TrkB, TrkC, VEGFR1, VEGFR2, VEGFR3, MuSK, EphA1, EphA2, EphA3, EphA4, EphA6, EphA7, EphB1, EphB2, EphB4, EphB6. This array was used as an RTK capture assay for determining pIGF-1R and pIR levels. Capture antibodies specific to each RTK are used to bind RTKs in tumor cell extracts. […]
# IR and IGF-1R = experiment: receptor phosphorylation in doxorubicin-treated A673 tumor cells; format: cell-based, human
# pERK = pERK in doxorubicin-treated A673 tumor cells; format: cell-based, human
# GEO (CRC) tumors = experiment: tumor xenograft anti-tumor efficacy; format: in vivo, nu/nu CD-1 mice; settings: OSI-906 50 mg/kg once-daily for 14 days; MAB391 every three days for a total of 5 doses
# From the text: (§3) Animals: Female nu/nu CD-1 mice (6-8 weeks, 22-25 g) were purchased from Charles River Laboratories (Wilmington, Mass.) and maintained in an AAALAC-accredited facility at OSI Pharmaceuticals as described previously (12).
# (§4) In vivo anti-tumor efficacy studies: Cells were harvested and implanted s.c. in the right flank of nu/nu CD-1 mice as described previously (12). Tumors were allowed to establish to 200±50 mm^3 in size before randomization into various treatment groups. […] Tumor volumes were determined from caliper measurements using the formula V=(length×width^2)/2. Tumor sizes and body weights were measured twice weekly. Tumor growth inhibition (TGI) was determined at different time points by the following formula: % TGI={1−[(Tt/T0)/(Ct/C0)]/1[C0/Ct}×100, where Tt=median tumor volume of treated at time t, T0=median tumor volume of treated at time 0, Ct=median tumor volume of control at time t, and C0=median tumor volume of control at time 0.
# [2] = tested on: SK-N-AS (neuroblastoma) tumors; experiment: tumor xenograft anti-tumor efficacy; format: in vivo, nu/nu CD-1 mice
# From the text: as §3, §4
# [3] = tested on: MDAH-2774 OvCa tumor cells; experiment: growth inhibition assay (Cell Titer-Glo); format: cell-based, human
# From the text: Cell Lines and Culture. Human cancer cell lines, were obtained from American Type Culture Collection (ATCC, Manassas, Va.), or the following additional indicated sources, and cultured in media as described. Tumor types are also indicated: H295R (adrenocortical carcinoma; ATCC), NCI-[…], NCI-[…], SW1573 (NSCLC; ATCC), […], BxPC3 (pancreatic; ATCC), OVCAR5 (ovarian; NCI;), MDAH-2774 (ovarian; ATCC), Igrov1 (ovarian; NCI), GEO (colon; Roswell Park Cancer Institute (RPCC)), HT-29 (colon; ATCC), RKO (colon; ATCC), […], 8226 (myeloma; ATCC), H929 (myeloma; ATCC), U266 (myeloma; ATCC), SKES1 (Ewings sarcoma; ATCC), RDES (Ewings sarcoma; ATCC), RD (rhabdomyosarcoma; ATCC), DU4475 (breast; ATCC), SKNAS (neuroblastoma; ATCC), 2650 (nasal SCC; ATCC), OVCAR4 (ovarian; NCI), A673 (Ewings sarcoma; ATCC), BT474 (breast; ATCC), 1386 (oral SCC; MSKCC, NY), 1186 (SCCHN; MSKCC, NY), Colo205 (colon; ATCC), HCT-15 (colon; ATCC), Fadu (oral SCC; ATCC), SKBR3 (breast; ATCC), 1483 (HNSCC; MSKCC, NY), HSC-2 (HNSCC; RIKEN BioResource Center, Tsukuba, Ibaraki, 305-0074, Japan). […] The cells were routinely screened for the presence of mycoplasma (MycoAlert, Cambrex Bio Science, Baltimore, Md.). For growth inhibition assays, cells were plated and allowed to proliferate for 24 hours. […] Cell viability was assayed using the Cell Titer-Glo reagent (Promega Corp., Madison, Wis.).
# [4] = tested on: broad panel (n=116) of additional RTKs and other protein kinases; settings: at 1 μM; cited from earlier work
# phospho-IGF-1R [5] = molecular target: T1, phospho-IGF-1R; experiment: RTK capture array, panel of nine tumor cell lines; format: cell-based; parameters: endogenous in cells; host or cells: human tumour cell lines (panel of nine; HT-29; MDAH-2774; H322, SK-N-AS, H295R, A673); settings: OSI-906 3 μM or MAB391 3 μg/mL; 16 hours; each cell line tested
# Procedure: Analysis of RTK phosphorylation via a proteome array: Proteome Profiler arrays containing capture antibodies for 42 RTKs were from R&D systems (RTK Proteome Profile; R&D Systems, Minneapolis, Minn.) and processed according to manufacturer's protocol. pIGF-1R and pIR were determined by RTK capture array. Proteome profiler arrays housed 42 different RTKs. RTKs included on the array include: HER1, HER2, HER3, HER4, FGFR1, FGFR2a, FGFR3, FGFR4, IR, IGF-1R, Axl, Dtk, Mer, HGFR, MSPR, PDGFRα, PDGFRβ, SCFR, Flt-3, M-CSFR, c-Ret, ROR1, ROR2, Tie-1, Tie-2, TrkA, TrkB, TrkC, VEGFR1, VEGFR2, VEGFR3, MuSK, EphA1, EphA2, EphA3, EphA4, EphA6, EphA7, EphB1, EphB2, EphB4, EphB6. This array was used as an RTK capture assay for determining pIGF-1R and pIR levels. Capture antibodies specific to each RTK are used to bind RTKs in tumor cell extracts. An HRP-conjugated pan anti-phospho-tyrosine antibody is used to specifically detect phosphorylated RTKs.
# phospho-IRS1^Y612 = experiment: Western blot, phospho-IRS1 in tumor cell lines; format: cell-based, human; settings: A673, H322, and H295R tumor cell lines; OSI-906 3 μM or MAB391 3 μg/ml
# Procedure: as §1
# phospho-PRAS40 = experiment: Western blot, phospho-PRAS40 in H295R cells; format: cell-based, human
# Procedure: as §1
# [6] = tested on: phospho-AKT or phospho-ERK; experiment: Western blot, downstream AKT and ERK signaling in tumor cell lines; format: cell-based, human; settings: OSI-906 3 μM or MAB391 3 μg/ml, 16 hour
# Procedure: as §1
# phospho-AKT [7] = experiment: in vivo pharmacodynamic analysis, GEO tumors; parameters: species or system nu/nu CD-1 mice; settings: GEO model
# Procedure: Tumor samples were collected at specified time points and snap frozen in liquid nitrogen. Tumor lysates were prepared by homogenizing samples in Precellys 24 homogenizer (MO Bio Laboratories, Inc., CA) with tumor lysis buffer (1% Triton X-100, 10% glycerol, 50 mM HEPES (ph 7.4), 150 mM NaCl, 1.5 mM MgCl2, 1 mM EDTA supplemented with fresh protease inhibitor cocktail (Sigma, Mo.), phosphatase inhibitor cocktail (Sigma, Mo.), 10 mM NaF and 1 mM sodium orthovanadate). Tissue homogenates were clarified by centrifugation at 14,000 g for 5 min at 4° C. and supernatants were then analyzed by Western blot or phospho-RTK array as indicated.
# BxPC3 tumors = experiment: tumor xenograft anti-tumor efficacy; parameters: species or system nu/nu CD-1 mice; settings: after treatment with OSI-906 in vivo for 10-14 days
# From the text: as §3, §4
# H295R tumors = experiment: tumor xenograft anti-tumor efficacy; parameters: species or system nu/nu CD-1 mice; settings: after treatment with OSI-906 in vivo for 10-14 days
# From the text: as §3, §4
# Colo205 tumors = experiment: tumor xenograft anti-tumor efficacy; parameters: species or system nu/nu CD-1 mice; settings: after treatment with OSI-906 in vivo for 10-14 days
# From the text: as §3, §4
# FaDu tumors = experiment: tumor xenograft anti-tumor efficacy; parameters: species or system nu/nu CD-1 mice; settings: after treatment with OSI-906 in vivo for 10-14 days
# From the text: as §3, §4
# H460 tumors = experiment: tumor xenograft anti-tumor efficacy; parameters: species or system nu/nu CD-1 mice; settings: after treatment with OSI-906 in vivo for 10-14 days
# From the text: as §3, §4
# phospho-AKT [8] = experiment: phospho-AKT in HT-29 CRC cells with insulin; format: cell-based, human; settings: HT-29 cells, basal or 5 or 50 μIU/mL insulin
# Procedure: as §1
# phospho-IGF-1R [9] = molecular target: T1, phospho-IGF-1R; experiment: receptor phosphorylation in MDAH-2774 cells; format: cell-based; parameters: endogenous in cells; host or cells: human tumour cell lines (MDAH-2774); settings: MDAH-2774 cells alone or with insulin, IGF-1 or IGF-2; OSI-906 3 μM or MAB391 3 μg/ml
# Procedure: as §1, §2
# [10] = A673 tumor cells, doxorubicin 300 nM
# T1 sequence (P08069 31-1367): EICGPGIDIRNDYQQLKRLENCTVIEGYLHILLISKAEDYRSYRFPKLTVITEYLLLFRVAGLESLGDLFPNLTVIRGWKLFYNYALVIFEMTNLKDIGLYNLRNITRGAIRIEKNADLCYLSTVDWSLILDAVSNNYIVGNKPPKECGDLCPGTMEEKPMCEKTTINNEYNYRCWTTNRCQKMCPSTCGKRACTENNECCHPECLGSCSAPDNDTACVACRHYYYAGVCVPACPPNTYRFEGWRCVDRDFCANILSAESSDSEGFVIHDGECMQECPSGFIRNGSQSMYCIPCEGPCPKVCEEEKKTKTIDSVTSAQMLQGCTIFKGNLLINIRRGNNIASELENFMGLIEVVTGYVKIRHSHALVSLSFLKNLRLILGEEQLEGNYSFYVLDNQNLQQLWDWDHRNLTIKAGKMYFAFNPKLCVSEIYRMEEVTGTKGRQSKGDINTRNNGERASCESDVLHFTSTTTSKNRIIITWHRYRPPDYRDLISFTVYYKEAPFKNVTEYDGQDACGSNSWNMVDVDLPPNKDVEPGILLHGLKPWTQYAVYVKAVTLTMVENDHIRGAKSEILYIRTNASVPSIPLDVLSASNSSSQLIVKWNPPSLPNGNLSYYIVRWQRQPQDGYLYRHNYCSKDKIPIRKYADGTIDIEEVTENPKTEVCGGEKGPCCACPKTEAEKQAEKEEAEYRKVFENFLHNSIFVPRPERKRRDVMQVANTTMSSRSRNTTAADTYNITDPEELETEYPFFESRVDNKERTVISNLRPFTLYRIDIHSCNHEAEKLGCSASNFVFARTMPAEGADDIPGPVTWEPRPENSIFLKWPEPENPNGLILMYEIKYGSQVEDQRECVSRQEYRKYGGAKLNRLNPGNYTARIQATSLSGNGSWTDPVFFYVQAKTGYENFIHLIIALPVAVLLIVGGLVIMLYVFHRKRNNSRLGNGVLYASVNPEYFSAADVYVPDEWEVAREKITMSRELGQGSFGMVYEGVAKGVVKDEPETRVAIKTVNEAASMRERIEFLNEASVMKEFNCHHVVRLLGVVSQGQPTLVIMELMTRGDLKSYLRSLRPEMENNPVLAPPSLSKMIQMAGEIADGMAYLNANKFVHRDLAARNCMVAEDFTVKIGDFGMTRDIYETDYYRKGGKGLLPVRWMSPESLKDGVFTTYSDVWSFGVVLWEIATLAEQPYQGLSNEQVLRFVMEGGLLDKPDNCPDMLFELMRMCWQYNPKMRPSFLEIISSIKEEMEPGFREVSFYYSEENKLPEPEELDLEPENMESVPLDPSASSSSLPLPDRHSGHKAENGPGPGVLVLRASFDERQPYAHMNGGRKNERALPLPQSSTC
structure (smiles),measurement,setting,value
"C[C@]1(O)C[C@@H](c2nc(-c3ccc4ccc(-c5ccccc5)nc4c3)c3c(N)nccn32)C1 [OSI-906, cis-3-[8-amino-1-(2-phenyl-quinolin-7-yl)-imidazo[1,5-a]pyrazin-3-yl]-1-methyl-cyclobutanol]",inhibition of phospho-IGF-1R,phospho-IGF-1R [1],fully inhibited
same,inhibition of IR and IGF-1R phosphorylation,IR and IGF-1R; A673 tumor cells treated with doxorubicin (300 nM),inhibits both IR and IGF-1R
same,inhibition of pERK,"pERK; A673 tumor cells treated with doxorubicin (300 nM), compared with MAB391",greater inhibition of pERK
same,mean TGI over the dosing period,GEO (CRC) tumors,79%
same,mean tumor growth inhibition (TGI) over the dosing period,"[2]; OSI-906 50 mg/kg once-daily for 14 days, MAB391 1 mg every three days intraperitoneally",100%
same,% TGI,[2]; after treatment with OSI-906 in vivo for 10-14 days,71%
same,sensitivity to OSI-906 in vitro,[3],sensitive
same,inhibition,[4],< 50%
same,decrease of phospho-IGF-1R,phospho-IGF-1R [5],> 90%
same,inhibition of phosphorylation of IRS1^Y612,phospho-IRS1^Y612,strongly inhibited
same,effect on phospho-PRAS40,phospho-PRAS40,decreased phospho-PRAS40
same,decrease of phospho-AKT or phospho-ERK levels,"[6]; H322, H295R, and A673 cells",to a greater extent than did MAB391
same,effect on phospho-AKT levels,[6]; SK-N-AS (neuroblastoma) tumor cells,decrease phospho-AKT levels
same,effect on phospho-AKT in tumors,phospho-AKT [7],decreased phospho-AKT in tumors
same,% TGI,BxPC3 tumors,56%
same,% TGI,H295R tumors,85%
same,% TGI,Colo205 tumors,90%
same,% TGI,FaDu tumors,< 30%
same,% TGI,H460 tumors,< 30%
same,inhibition of phospho-AKT,phospho-AKT [8],fully inhibited
same,inhibition of IGF-1R phosphorylation,phospho-IGF-1R [9],fully inhibited
"COc1cccc2c1C(=O)c1c(O)c3c(c(O)c1C2=O)C[C@@](O)(C(=O)CO)C[C@@H]3O[C@H]1C[C@H](N)[C@H](O)[C@H](C)O1 [doxorubicin, reference compound]",phosphorylation of IR and IGF-1R following treatment,IR and IGF-1R; [10],upregulated phosphorylation of both IR and IGF-1R
same,downstream signaling at the level of pERK following treatment,pERK; [10],increased phosphorylation of downstream signaling at the level of pERK
